Here are results for one molecule from ChEMBL document CHEMBL1150648, “Coproverdine, a novel, cytotoxic marine alkaloid from a new zealand ascidian” (J Nat Prod, 2002).

What all share (assay type): functional, cell-based
For test [1], the system named is P388. The test is described as follows: Cytotoxicity against mouse P388 cells.
Test [2] has as its system A549. Kind of test: Cytotoxicity against human A549 cells.
In test [3] the test system is HT-29. The test is described as follows: Cytotoxicity against human HT-29 cells.
Test [4] has as its system SK-MEL-28. The test is described as follows: Cytotoxicity against human SK-MEL-28 cells.
In test [5] the test system is DU-145. The test is described as follows: Cytotoxicity against human DU145 cells.

The structures appear in SMILES notation.

`COC(=O)c1cccc2c3c(n(O)c12)C(O)(C=O)C=CC3=O` (stereo not given) [COPROVERDINE]: the IC50 in test [1] amounted to 1.6 µM; in test [2], 0.3 µM; in test [3] it was 0.3 µM; in test [4], 0.3 µM; in test [5], 0.3 µM.
